Source: patent US20250154201A1, “PEPTIDE BINDING TO MESOTHELIN, AND USE THEREOF” (KYUNGPOOK NATIONAL UNIVERSITY INDUSTRY-ACADEMIC COOPERATION …, priority 2022, published 2025)

Legend:
[1] = test system: AsPC-1 cells expressing mesothelin; assay: binding to AsPC-1 cells after mesothelin siRNA (confocal immunofluorescence and flow cytometry); type: cell-based, human; conditions: for specific binding (flow cytometry): 25 μM MSLN-pep
Experimental: Mesothelin-specific siRNA (M-siRNA) and negative control siRNA (C-siRNA) were purchased from Bioneer and transfected with Lipofectamine RNAiMAX transfection reagent (Invitrogen) into AsPC-1, a pancreatic cancer cell line. After 24 hours of transfection, the media were replaced with a medium containing serum, followed by culture for an additional 24 hours.
After AsPC-1 cells were cultured for 24 hours, for suppression of mesothelin expression, transfection followed with C-siRNA, a non-specific siRNA, as well as M-siRNA, a mesothelin-specific siRNA. To detect the silencing of the mesothelin gene, the group was divided into one without treatment of siRNA, one with treatment of 100 nM C-siRNA, and one with treatment of 100 nM and 200 nM M-siRNA. Mesothelin antibody and MSLN-pep were then treated by 10 μM and 25 μM, respectively. Further, the results were identified by means of confocal microscopy via immunofluorescence analysis (FIG. 6A). […] Flow cytometry was performed to determine the expression level of mesothelin when siRNA was not treated to AsPC-1 cells and the expression level of mesothelin after C-siRNA and M-siRNA were treated, of which values were expressed in % binding with the mesothelin antibody and the mean fluorescence intensity (MFI). […] As a result of performing flow cytometry to determine the difference between the binding of 25 μM MSLN-pep when siRNA was not treated to AsPC-1 cells expressing mesothelin and the binding of 25 μM MSLN-pep after treating with C-siRNA and M-siRNA, when treated with no siRNA or treated with 100 nM C-siRNA, the specific binding of 25 μM MSLN-pep was approximately 78%, and when treated with 100 nM and 200 nM M-siRNA, it was approximately 15%. This series of results reveal the degree of mesothelin expression and the reduction of mesothelin expression when M-siRNA is treated. […] In brief, it was determined that MSLN-pep specifically binds to cells expressing mesothelin.

[2] = test system: PANC-1 and AsPC-1 cell lines; assay: analysis of migration (24-transwell); type: cell-based, human; conditions: 24 hours
Experimental: PANC-1 and AsPC-1 cell lines were cultured using DMEM and RPMI-1640 media with 10% FBS added respectively in the upper chamber of 24-transwell at a concentration of 2×10^4 cells per well. After 24 hours, all the media in the upper chamber of 24-transwells were removed and replaced with DMEM and RPMI-1640 media without addition of 10% FBS to inhibit migratability of cell lines, so as to be in a starvation state. After 24 hours, the experimental group was added with 10% FBS in the lower chamber, and the control was added with 0% FBS in the lower chamber to observe migratability. 3% ACN, 200 μM control peptide (Ctrl-pep), MSLN-pep 25. For 50, 100, and 200 μM groups, the media in the upper chamber of 24-Transwell were removed, each drug was treated by concentration, and 10% FBS was treated in the lower chamber. Each group was cultured at 37° C. for 24 hours, and then the cells were photographed (original magnification, ×100) by concentration of each peptide. Cells were stained with crystal violet (0.1%), and the ImageJ, a computer program, was used for quantitative evaluation.
After pancreatic cancer cell lines PANC-1 and AsPC-1 were cultured in 24-transwells, all cells were starved for 24 hours to inhibit cell growth, and then treatment was performed in divided groups of 10% FBS, 0% FBS, 3% ACN+10% FBS, 200 μM NSSSVDK+10% FBS, 25 μM MSLN-pep+10% FBS, 50 μM MSLN-pep+10% FBS, 100 μM MSLN-pep+10% FBS, and 200 μM MSLN-pep+10% FBS.

[3] = test system: mesothelin-expressing pancreatic cancer cell lines AsPC-1, PANC-1, BxPC-3, and MiaPaCa-2; assay: immunofluorescence binding of MSLN-pep to pancreatic cancer cell lines; type: cell-based, human; conditions: 10 μM and 25 μM MSLN-pep
Source text: Taken together, it was found via immunofluorescence analysis that MSLN-pep specifically binds to mesothelin.

[4] = test system: pancreatic cancer cell lines PANC-1 and AsPC-1; assay: internalization of FITC-labeled peptides (confocal microscopy); type: cell-based, human; conditions: 25 μM and 50 μM MSLN-pep, 50 uM NSSSVDK; 1 and 2 hours
Experimental: To observe the intracellular distribution of the internalized FITC-labeled peptide MSLN-pep, pancreatic cancer cell lines AsPC-1 and PANC-1 cells (2.5×10^5 cell counts) were dispensed on a 4-well chamber slide. After complete adhesion, the cell culture medium was replaced with a fresh medium containing FITC-labeled peptides (25 μM, 50 μM), […], and the cells were washed with PBS 3 times for 3˜5 minutes, followed by fixation (4% paraformaldehyde; PFA) for 5 minutes. Thereafter, washing with PBS was performed. After staining the nucleus with DAPI and mounting on a glass slide with a fading reagent, internalization of FITC-labeled MSLN-pep was observed under confocal microscopy.

mesothelin = mesothelin (Homo sapiens, UniProt Q13421); assay: co-localization of TAMRA-labeled MSLN-pep with mesothelin antibody (confocal microscopy); type: cell-based; parameters: endogenous in cells; conditions: AsPC-1, PANC-1, BxPC-3
mesothelin, sequence (Q13421 with tags, fused parts or gaps limits assumed): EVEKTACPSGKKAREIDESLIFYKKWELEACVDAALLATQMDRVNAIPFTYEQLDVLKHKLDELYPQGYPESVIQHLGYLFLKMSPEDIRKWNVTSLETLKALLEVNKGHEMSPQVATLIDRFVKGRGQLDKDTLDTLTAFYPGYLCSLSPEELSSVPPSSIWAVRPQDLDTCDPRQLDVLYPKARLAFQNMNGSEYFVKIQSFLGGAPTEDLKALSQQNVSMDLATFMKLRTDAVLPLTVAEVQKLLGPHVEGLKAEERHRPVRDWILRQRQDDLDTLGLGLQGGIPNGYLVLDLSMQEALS
Experimental: Pancreatic cancer cell lines AsPC-1, PANC-1, and BxPC-3 were cultured in a 4-well chamber and then treated with mesothelin antibodies to determine the location where mesothelin is expressed.

SMILES: CC[C@H](C)[C@@H]1NC(=O)[C@H]([C@@H](C)O)NC(=O)[C@@H](N)CSSC[C@@H](C(=O)O)NC(=O)[C@H]([C@@H](C)O)NC(=O)[C@H](CC(C)C)NC(=O)[C@H](CO)NC(=O)[C@H](Cc2c[nH]c3ccccc23)NC(=O)[C@H](CC(C)C)NC1=O [MSLN-pep]
- specific binding (flow cytometry) ([1]; 100 nM and 200 nM M-siRNA): approximately 15%
- specific binding (flow cytometry) ([1]; no siRNA or 100 nM C-siRNA): approximately 78%
- specific binding to mesothelin (confocal immunofluorescence) ([1]; 25 μM compared to 10 μM): higher specific binding to mesothelin
- specific binding (confocal immunofluorescence) ([1]; M-siRNA 100 nM and 200 nM): decreased with the decrease of mesothelin expression
- migratability compared to treatment of 10% FBS ([2]; 25 μM + 10% FBS): no difference in the migratability and invasiveness
- migratability ([2]; 50, 100 and 200 μM + 10% FBS): suppressed with increasing concentrations of MSLN-pep
- specific binding (immunofluorescence) [3]: specific binding of MSLN-pep even at 10 μM with the further increase at 25 μM
- binding and internalization into cells [4]: internalization into cells occurs in proportion to the increase in the concentration
- location of binding site relative to mesothelin expression (mesothelin): binding took place at the same spot where the mesothelin is expressed
